Measurements: patent publication US7041470B2, “Method of assaying the susceptibility of biofilms to anti-microbial agents” (University Technologies International, Inc., priority 1996, dated 2006)

Columns and labels:
[1] = tested on: staph. aureus planktonic bacteria; test: staph. aureus planktonic bacteria, optical density reading of turbidity; format: cell-based, staphylococcus aureus; details: 490 nm
Experimental: (§1) Up to 8 different antibiotics or biocides can be tested by using 1 row (A-H) for each antimicrobial reagent. […] Rinse the remaining projections in PBS using a troughed vessel 20 and place the colonized projections into the 96 well antibiotic plate and incubate overnight at 37° C.

[2] = tested on: staph. aureus biofilm; test: staph. aureus biofilm, optical density reading of turbidity; format: cell-based, staphylococcus aureus; details: 490 nm
Experimental: (§2) Up to 8 different antibiotics or biocides can be tested by using 1 row (A-H) for each antimicrobial reagent. […] Rinse the remaining projections in PBS using a troughed vessel 20 and place the colonized projections into the 96 well antibiotic plate and incubate overnight at 37° C. […] (3) From the freshly sonicated plate remove 0.02 ml of the medium from each well and spot plate neat; and 0.025 ml from each well to prepare a serial dilution (10^−1 to 10^−6) and spot plate 0.02 ml (dilutions can be done in microtiter plates, one for each antibiotic). Place the plate containing the remaining medium and bacteria to incubate at 37° C., overnight. Day 4: Assay the sessile survival, by for example reading the plate incubated overnight at 490 nm or by counting the colonies on the plates to determine the actual number of surviving bacteria, or by using some other method known in the art.

[3] = tested on: staphylococcus epidermidis planktonic bacteria; test: staphylococcus epidermidis planktonic bacteria, optical density reading of turbidity; format: cell-based; details: 490 nm
Experimental: as §1

[4] = tested on: Escherichia coli planktonic bacteria; test: Escherichia coli planktonic bacteria, optical density reading of turbidity; format: cell-based; details: 490 nm
Experimental: as §1

[5] = tested on: Escherichia coli biofilm; test: Escherichia coli biofilm, optical density reading of turbidity; format: cell-based; details: 490 nm
Experimental: as §2

[6] = tested on: staphylococcus epidermidis biofilm; test: staphylococcus epidermidis biofilm, optical density reading of turbidity; format: cell-based; details: 490 nm
Experimental: as §2

[7] = tested on: staphylococcus aureus biofilm; test: staphylococcus aureus biofilm on projections, antibiotic treatment, manual cfu count; format: cell-based
Experimental: Up to 8 different antibiotics or biocides can be tested by using 1 row (A-H) for each antimicrobial reagent. […] Rinse the remaining projections in PBS using a troughed vessel 20 and place the colonized projections into the 96 well antibiotic plate and incubate overnight at 37° C. […] (3) From the freshly sonicated plate remove 0.02 ml of the medium from each well and spot plate neat; and 0.025 ml from each well to prepare a serial dilution (10^-1 to 10^-6) and spot plate 0.02 ml (dilutions can be done in microtiter plates, one for each antibiotic). Place the plate containing the remaining medium and bacteria to incubate at 37° C., overnight. Day 4: Assay the sessile survival, by for example reading the plate incubated overnight at 490 nm or by counting the colonies on the plates to determine the actual number of surviving bacteria, or by using some other method known in the art. Several different conventional methods may be used to count the bacteria. It may be done by incubating the sonicated bacteria, taking serial dilutions and visually counting the colony forming units, or automated methods may be used, as for example using an optical reader to determine optical density. […] In the case of using vital dye technology, the biofilm need not be further incubated. In a further embodiment, the assay may be carried out by sonicating the cells until they lyse and release ATP and then adding luciferase to produce a mechanically readable light output. In a still further embodiment, the assay may be carried out directly on the biofilm on the projections using a confocal microscope, although it should be considered that this is difficult to automate. […] Examples are given to show a comparison between counts of planktonic bacteria and counts of sessile bacteria for the same growth conditions. […] The antibiotic was applied to the wells 2-12 of the rows A-G of a 96 well plate as follows: well 2: no antibiotic, well 3: 1000 μg/mL, well 4: 500 μg/mL . . . well 12: 2 μg/mL.

[8] = well 5 of doubling dilutions, well 3: 1000 μg/mL to well 12: 2 μg/mL
[9] = well 6 of doubling dilutions, well 3: 1000 μg/mL to well 12: 2 μg/mL ([…] implied)
[10] = well 7 of doubling dilutions, well 3: 1000 μg/mL to well 12: 2 μg/mL
[11] = well 8 of doubling dilutions, well 3: 1000 μg/mL to well 12: 2 μg/mL
[12] = well 9 of doubling dilutions, well 3: 1000 μg/mL to well 12: 2 μg/mL
[13] = well 10 of doubling dilutions, well 3: 1000 μg/mL to well 12: 2 μg/mL ([…] implied)
[14] = well 11 of doubling dilutions, well 3: 1000 μg/mL to well 12: 2 μg/mL

CC(C)(O/N=C(\C(=O)N[C@@H]1C(=O)N2C(C(=O)[O-])=C(C[n+]3ccccc3)CS[C@H]12)c1csc(N)n1)C(=O)O [F, ceftazidine]
optical density reading of turbidity, staph. aureus planktonic bacteria ([1]; well 3: 1000 μg/mL antibiotic): .073
optical density reading of turbidity, staph. aureus planktonic bacteria ([1]; well 4: 500 μg/mL antibiotic): .076
optical density reading of turbidity, staph. aureus planktonic bacteria [1, 8]: .081
optical density reading of turbidity, staph. aureus planktonic bacteria [1, 9]: .079
optical density reading of turbidity, staph. aureus planktonic bacteria [1, 10]: .076
optical density reading of turbidity, staph. aureus planktonic bacteria [1, 11]: .079
optical density reading of turbidity, staph. aureus planktonic bacteria [1, 12]: .078
optical density reading of turbidity, staph. aureus planktonic bacteria [1, 13]: .111
optical density reading of turbidity, staph. aureus planktonic bacteria [1, 14]: .564
optical density reading of turbidity, staph. aureus planktonic bacteria ([1]; well 12: 2 μg/mL antibiotic): .717
optical density reading of turbidity, staph. aureus biofilm ([2]; well 3: 1000 μg/mL antibiotic): .779
optical density reading of turbidity, staph. aureus biofilm ([2]; well 4: 500 μg/mL antibiotic): .830
optical density reading of turbidity, staph. aureus biofilm [2, 8]: .777
optical density reading of turbidity, staph. aureus biofilm [2, 9]: .739
optical density reading of turbidity, staph. aureus biofilm [2, 10]: .719
optical density reading of turbidity, staph. aureus biofilm [2, 11]: .840
optical density reading of turbidity, staph. aureus biofilm [2, 12]: .806
optical density reading of turbidity, staph. aureus biofilm [2, 13]: .882
optical density reading of turbidity, staph. aureus biofilm [2, 14]: .924
optical density reading of turbidity, staph. aureus biofilm ([2]; well 12: 2 μg/mL antibiotic): .916
optical density reading of turbidity, staphylococcus epidermidis planktonic bacteria ([3]; well 3: 1000 μg/mL antibiotic): .359
optical density reading of turbidity, staphylococcus epidermidis planktonic bacteria ([3]; well 4: 500 μg/mL antibiotic): .383
optical density reading of turbidity, staphylococcus epidermidis planktonic bacteria [3, 8]: .397
optical density reading of turbidity, staphylococcus epidermidis planktonic bacteria [3, 9]: .410
optical density reading of turbidity, staphylococcus epidermidis planktonic bacteria [3, 10]: .466
optical density reading of turbidity, staphylococcus epidermidis planktonic bacteria [3, 11]: .540
optical density reading of turbidity, staphylococcus epidermidis planktonic bacteria [3, 12]: .615
optical density reading of turbidity, staphylococcus epidermidis planktonic bacteria [3, 13]: .627
optical density reading of turbidity, staphylococcus epidermidis planktonic bacteria [3, 14]: .694
optical density reading of turbidity, staphylococcus epidermidis planktonic bacteria ([3]; well 12: 2 μg/mL antibiotic): .853
optical density reading of turbidity, Escherichia coli planktonic bacteria ([4]; well 3: 1000 μg/mL antibiotic): .123
optical density reading of turbidity, Escherichia coli planktonic bacteria ([4]; well 4: 500 μg/mL antibiotic): .129
optical density reading of turbidity, Escherichia coli planktonic bacteria [4, 8]: .134
optical density reading of turbidity, Escherichia coli planktonic bacteria [4, 9]: .137
optical density reading of turbidity, Escherichia coli planktonic bacteria [4, 10]: .128
optical density reading of turbidity, Escherichia coli planktonic bacteria [4, 11]: .137
optical density reading of turbidity, Escherichia coli planktonic bacteria [4, 12]: .137
optical density reading of turbidity, Escherichia coli planktonic bacteria [4, 13]: .140
optical density reading of turbidity, Escherichia coli planktonic bacteria [4, 14]: .147
optical density reading of turbidity, Escherichia coli planktonic bacteria ([4]; well 12: 2 μg/mL antibiotic): .152
optical density reading of turbidity, Escherichia coli biofilm ([5]; well 3: 1000 μg/mL antibiotic): .121
optical density reading of turbidity, Escherichia coli biofilm ([5]; well 4: 500 μg/mL antibiotic): .123
optical density reading of turbidity, Escherichia coli biofilm [5, 8]: 1.158
optical density reading of turbidity, Escherichia coli biofilm [5, 9]: .121
optical density reading of turbidity, Escherichia coli biofilm [5, 11]: .120
optical density reading of turbidity, Escherichia coli biofilm [5, 12]: .123
optical density reading of turbidity, Escherichia coli biofilm [5, 13]: 1.152
optical density reading of turbidity, Escherichia coli biofilm [5, 14]: 1.249
optical density reading of turbidity, Escherichia coli biofilm ([5]; well 12: 2 μg/mL antibiotic): 1.268
optical density reading of turbidity, staphylococcus epidermidis biofilm ([6]; well 3: 1000 μg/mL antibiotic): .897
optical density reading of turbidity, staphylococcus epidermidis biofilm ([6]; well 4: 500 μg/mL antibiotic): .888
optical density reading of turbidity, staphylococcus epidermidis biofilm [6, 8]: 1.013
optical density reading of turbidity, staphylococcus epidermidis biofilm [6, 9]: .855
optical density reading of turbidity, staphylococcus epidermidis biofilm [6, 10]: .992
optical density reading of turbidity, staphylococcus epidermidis biofilm [6, 11]: .903
optical density reading of turbidity, staphylococcus epidermidis biofilm [6, 12]: .920
optical density reading of turbidity, staphylococcus epidermidis biofilm [6, 13]: .850
optical density reading of turbidity, staphylococcus epidermidis biofilm [6, 14]: .843
optical density reading of turbidity, staphylococcus epidermidis biofilm ([6]; well 12: 2 μg/mL antibiotic): .902
manually counted cfu, staphylococcus aureus biofilm ([7]; well 3: 1000 μg/mL antibiotic): 0 cfu
manually counted cfu, staphylococcus aureus biofilm ([7]; well 4: 500 μg/mL antibiotic): 1.0 × 10^2 cfu
manually counted cfu, staphylococcus aureus biofilm [7, 8]: 0 cfu
manually counted cfu, staphylococcus aureus biofilm [7, 9]: 1.0 × 10^2 cfu
manually counted cfu, staphylococcus aureus biofilm [7, 10]: 50 cfu
manually counted cfu, staphylococcus aureus biofilm [7, 11]: 0 cfu
manually counted cfu, staphylococcus aureus biofilm [7, 12]: 0 cfu
manually counted cfu, staphylococcus aureus biofilm [7, 13]: 1.0 × 10^5 cfu
manually counted cfu, staphylococcus aureus biofilm [7, 14]: 4.0 × 10^5 cfu
manually counted cfu, staphylococcus aureus biofilm ([7]; well 12: 2 μg/mL antibiotic): 9.0 × 10^5 cfu
